Test results taken from US11180487B2, “Substituted cyanoindoline derivatives as NIK inhibitors” (Janssen Pharmaceutica NV, priority 2016, dated 2021).
Like-named read-outs stand apart in the source and are kept apart here.

Assays:
[1] = system: JJN-3 (NIK translocated) multiple myeloma cells; test: Antiproliferative activity on JJN-3 multiple myeloma cells (CellTiter-Glo, 96 hr), Biological Assay C; format: cell-based, human; conditions: JJN-3 (NIK translocated) cells, averaged values, read-out: JJN-3 Proliferation inhibition (IC50 (nM))
In short: (§1)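 Growth read-out was CellTiter-Glo luminescence after 96 h compound exposure, given as percent of no-drug control after subtracting a blank of cells read at dosing. Compounds ran as 9-point serial 1:3 dilutions in 0.3% DMSO, duplicate wells, on JJN-3 (15000/well) or KMS12-BM (20000/well) cells in RPMI 1640/10% FCS.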

[2] = biological target: recombinant human NF-kappaB-inducing kinase (NIK/MAP3K14) (Homo sapiens, UniProt Q99558); test: Inhibition of auto-phosphorylation of recombinant human NIK/MAP3K14 activity (AlphaScreen), Biological Assay A; format: biochemical; conditions: averaged values over all measurements on all batches
In short: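 AlphaScreen detection with anti-phospho-IKK Ser176/180 antibody plus Protein A acceptor/glutathione donor beads after 1 h, 25 °C reaction of 0.2 nM GST-tagged kinase, 25 μM ATP and compound. Buffer: 50 mM Tris pH 7.5, MgCl2, EGTA, DTT, vanadate; 1% DMSO. IC50 fitted sigmoidally to % inhibition.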

[3] = system: KMS12-BM (NIK WT) multiple myeloma cells; test: Antiproliferative activity on KMS12-BM multiple myeloma cells (CellTiter-Glo, 96 hr), Biological Assay C; format: cell-based, human; conditions: averaged values, read-out: KMS-12 Proliferation inhibition (IC50 (nM))
In short: as §1

[4] = system: P-IKKα levels in L363 (NIK translocated multiple myeloma) cells; test: Effect of compounds on P-IKKα levels in L363 cells (Mesoscale sandwich immuno-assay), Biological Assay B; format: cell-based, human; conditions: 2 hr treatment, averaged values, read-out: Inhibition of pIKKα_L-363 (IC50 (nM))
Description: Effect of Compounds on P-IKKα Levels in L363 (NIK Translocated Multiple Myeloma) Cells
All compounds tested were dissolved in DMSO and further dilutions were made in culture medium. Final DMSO concentration was 1% (v/v) in cell assays. The human L363 cells (ATCC) were cultured in RPMI 1640 medium supplemented with GlutaMax and 10% fetal calf serum (PAA). Cells were routinely maintained at densities of 0.2×10^6 cells per ml-1×10^6 cells per ml at 37° C. in a humidified 5% CO2 atmosphere. Cells were passaged twice a week splitting back to obtain the low density. Cells were seeded in 96 well plates (Nunc 167008) at 2×10^6 per ml media in a volume of 75 μl per well plus 25 μl 1 μg/ml recombinant human B-cell activating factor (BAFF/BLyS/TNFSF13B). Seeded cells were incubated at 37° C. in a humidified 5% CO2 atmosphere for 24 hr. Drugs and/or solvents were added (20 μl) to a final volume of 120 μl. Following 2 hr treatment plates were removed from the incubator and cell lysis was achieved by the addition of 30 μl 5× lysis buffer followed by shaking on a plate shaker at 4° C. for 10 min. At the end of this incubation lysed cells were centrifuged at 800×g for 20 min at 4° C. and the lysate was assessed for P-IKKα levels by sandwich immuno-assay carried out in anti-rabbit antibody coated Mesoscale plates. Within an experiment, the results for each treatment were the mean of 2 replicate wells. For initial screening purposes, compounds were tested using an 8 point dilution curve (serial 1:3 dilutions). For each experiment, controls (containing MG132 and BAFF but no test drug) and a blank incubation (containing MG132 and BAFF and 10 μM ADS125117, a test concentration known to give full inhibition) were run in parallel. The blank incubation value was subtracted from all control and sample values. To determine the IC50 a sigmoidal curve was fitted to the plot of % inhibition of control P-IKKα levels versus Log10 compound concentration.
Note: Compounds 237 and 238 were tested at a maximum top concentration of 823 nM.

Chain of recombinant human NF-kappaB-inducing kinase (NIK/MAP3K14) (Q99558 whole entry): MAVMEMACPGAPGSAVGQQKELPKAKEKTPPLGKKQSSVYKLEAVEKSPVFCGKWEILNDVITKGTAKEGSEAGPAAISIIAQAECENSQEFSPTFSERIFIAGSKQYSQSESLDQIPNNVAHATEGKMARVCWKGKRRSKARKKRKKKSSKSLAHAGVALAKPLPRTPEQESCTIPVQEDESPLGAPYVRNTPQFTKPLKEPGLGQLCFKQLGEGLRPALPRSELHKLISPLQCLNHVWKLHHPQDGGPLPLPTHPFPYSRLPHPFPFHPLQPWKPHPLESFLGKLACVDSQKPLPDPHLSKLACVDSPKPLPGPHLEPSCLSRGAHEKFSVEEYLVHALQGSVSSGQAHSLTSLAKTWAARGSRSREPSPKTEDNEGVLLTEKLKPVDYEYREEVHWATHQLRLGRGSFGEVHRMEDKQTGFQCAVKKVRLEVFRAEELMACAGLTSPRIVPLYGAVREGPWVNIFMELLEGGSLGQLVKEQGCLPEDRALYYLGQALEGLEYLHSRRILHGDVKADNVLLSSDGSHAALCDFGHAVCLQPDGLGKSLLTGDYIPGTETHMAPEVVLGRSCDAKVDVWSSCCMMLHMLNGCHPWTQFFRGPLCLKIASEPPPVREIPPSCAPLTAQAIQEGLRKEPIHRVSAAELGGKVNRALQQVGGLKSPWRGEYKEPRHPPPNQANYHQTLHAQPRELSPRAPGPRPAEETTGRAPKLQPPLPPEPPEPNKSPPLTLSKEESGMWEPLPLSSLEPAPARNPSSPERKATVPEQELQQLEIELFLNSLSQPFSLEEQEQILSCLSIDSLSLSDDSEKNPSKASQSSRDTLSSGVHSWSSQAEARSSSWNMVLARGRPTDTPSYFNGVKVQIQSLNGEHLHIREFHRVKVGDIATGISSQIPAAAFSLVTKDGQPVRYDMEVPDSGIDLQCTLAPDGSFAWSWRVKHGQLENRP

Row | SMILES | IC50 ([1]; Homo sapiens, JJN-3, 96 h) [nM] | IC50 [2] [nM] | melting point [°C] | IC50 ([3]; Homo sapiens, KMS-12-BM, 96 h) [nM] | IC50 ([4]; Homo sapiens, L-363, 2 h) [nM] | IC50 [1] [nM] | IC50 [3] [nM] | IC50 [4] [nM]
1 | CN(C)Cc1cc(Nc2nccc(-c3cc(C#N)c4c(c3)[C@@](C)(CO)CN4)n2)ccc1C1CCOCC1 [Compound 236] | 32 | 2.6 | 249 | 178 | 42.7 | – | – | –
2 | Cc1c(CN2CC(F)(F)C2)cc(C#N)cc1Nc1nccc(-c2cc(C#N)c3c(c2)[C@@](C)(CO)CN3)n1 [Compound 196] | 14 | 7.8 | 240 | > 10000 | 1 | – | – | –
3 | Cc1ccc(C#N)cc1Nc1nccc(-c2cc(C#N)c3c(c2)[C@@](C)(CO)CN3)n1 [Compound 1] | – | 1.8 | 222 | – | – | 85 | 5190 | 2.2
4 | Cc1cc(F)c(C(=O)NC2CCOC2)cc1Nc1nccc(-c2cc(C#N)c3c(c2)[C@@](C)(CO)CN3)n1 (single isomer, unassigned) [Compound 168] | ~1410 | 10.7 | 246 | > 10000 | 14.5 | – | – | –
5 | CCCCc1ccc(C#N)cc1Nc1nccc(-c2cc(C#N)c3c(c2)[C@@](C)(CO)CN3)n1 [Compound 15] | 117 | 11 | 110 | > 10000 | ~269 | – | – | –
6 | C[C@]1(CO)CNc2c(C#N)cc(-c3ccnc(Nc4cc(C#N)c(F)cc4OC4CC4)n3)cc21 [Compound 209] | 132 | 14.5 | 254 | > 10000 | 14.8 | – | – | –
7 | Cc1c(Nc2nccc(-c3cc(C#N)c4c(c3)[C@@](C)(CO)CN4)n2)cccc1C(=O)N1CC(C)OC(C)C1 (some centres unmarked) [Compound 199] | 76 | 6.9 | 170 | > 10000 | 7.4 | – | – | –
8 | COC(=O)c1cc(C#N)cc(Nc2nccc(-c3cc(C#N)c4c(c3)[C@@](C)(CO)CN4)n2)c1C [Compound 200] | 41 | 1.7 | 260 | > 10000 | ~0.66 | – | – | –
9 | CNC(=O)c1cc(Nc2nccc(-c3cc(C#N)c4c(c3)[C@@](C)(CO)CN4)n2)c(C)cc1F [Compound 155] | 467 | 3.5 | 218 | > 10000 | 7.7 | – | – | –
10 | C[C@]1(CO)CNc2c(C#N)cc(-c3ccnc(Nc4cc(CO)c(F)cc4OC4CC4)n3)cc21 [Compound 208] | 389 | 6.5 | 234 | > 10000 | 10.7 | – | – | –
11 | C[C@]1(CO)CNc2c(C#N)cc(-c3ccnc(Nc4cc(C#N)ccc4CN4CC(F)(F)C4)n3)cc21 [Compound 227] | 96 | 7.9 | 223 | ~3160 | 32.4 | – | – | –
12 | Cc1ccc(C#N)cc1Nc1nccc(-c2cc(C#N)c3c(c2)[C@@](C)(CO)CN3)n1 [Compound 131] | – | 1.3 | 174 | – | – | 324 | > 10000 | 4.7
13 | Cc1cc(F)c(C(=O)NC2CCN(C)C2)cc1Nc1nccc(-c2cc(C#N)c3c(c2)[C@@](C)(CO)CN3)n1 (single isomer, unassigned) [Compound 166] | 955 | 8.9 | 116 | > 10000 | 18.6 | – | – | –
14 | Cc1ccc(C(=O)NCCN2CCOCC2)cc1Nc1nccc(-c2cc(C#N)c3c(c2)[C@@](C)(CO)CN3)n1 [Compound 159] | 4790 | 5.5 | 140 | > 10000 | 20.4 | – | – | –
15 | CC(=O)OC[C@@]1(C)CNc2c(C#N)cc(-c3ccnc(Nc4cc(C#N)ccc4C)n3)cc21 [Compound 125] | 182 | 13.8 | 213 | ~6920 | 3.6 | – | – | –
16 | COCCOc1ccc(C#N)cc1Nc1nccc(-c2cc(C#N)c3c(c2)[C@@](C)(CO)CN3)n1 [Compound 66] | 251 | 3 | 165 | 19 | 5.9 | – | – | –
17 | CN1CCC(Oc2ccc(Cl)cc2Nc2nccc(-c3cc(C#N)c4c(c3)C(C)(C)CN4)n2)CC1 [Compound 80] | 124 | 15.2 | 192 | 1000 | 209 | – | – | –
18 | Cc1ccc(C#N)cc1Nc1nccc(-c2cc(C#N)c3c(c2)[C@@](C)(COS(=O)(=O)O)CN3)n1 [Compound 143] | 200 | 6.5 | > 270 | > 10000 | 12.3 | – | – | –
19 | C[C@]1(CO)CNc2c(C#N)cc(-c3ccnc(Nc4cc(C#N)ccc4CNC4CC4)n3)cc21 [Compound 225] | 195 | 20 | 181 | > 10000 | 19.5 | – | – | –
20 | Cc1ccc(CN2CC(F)C2)cc1Nc1nccc(-c2cc(C#N)c3c(c2)[C@@](C)(CO)CN3)n1 [Compound 220] | 4570 | 10.2 | 140 | > 10000 | 72.4 | – | – | –
21 | Cc1c(CN2CC(F)C2)cc(C#N)cc1Nc1nccc(-c2cc(C#N)c3c(c2)[C@@](C)(CO)CN3)n1 [Compound 195] | 30 | 6.2 | 210 | ~3720 | 1.9 | – | – | –
22 | CNC(=O)c1cc(Nc2nccc(-c3cc(C#N)c4c(c3)[C@@](C)(CO)CN4)n2)c(F)cc1OC1CC1 [Compound 157] | 178 | 4.9 | 235 | ~7590 | 12.9 | – | – | –
23 | COc1cc(S(C)(=O)=O)ccc1Nc1nccc(-c2cc(C#N)c3c(c2)[C@@](C)(CO)CN3)n1 [Compound 73] | 68 | 2.2 | 201 | > 10000 | 1.4 | – | – | –
24 | Cc1ccc(OC2CCN(C)CC2)c(Nc2nccc(-c3cc(C#N)c4c(c3)[C@@](C)(CO)CN4)n2)c1 [Compound 234] | 20 | 3.5 | 192 | – | 5.9 | – | – | –
25 | CC(=O)NC[C@@]1(C)CNc2c(C#N)cc(-c3ccnc(Nc4cc(C#N)ccc4C)n3)cc21 [Compound 211] | – | 16.2 | 160 | – | 3160 | – | – | –
26 | Cc1ccc(CN2CCC(O)CC2)c(Nc2nccc(-c3cc(C#N)c4c(c3)[C@@](C)(CO)CN4)n2)c1 [Compound 221] | – | 32.4 | 181 | – | 646 | – | – | –
27 | Cc1ccc(C(=O)N2CCN(C)CC2)cc1Nc1nccc(-c2cc(C#N)c3c(c2)[C@@](C)(CO)CN3)n1 [Compound 161] | – | 20.4 | 245 | – | 407 | – | – | –
28 | Cc1ccc(C#N)cc1Nc1nccc(-c2cc(C#N)c3c(c2)[C@@](C)(CF)CN3)n1 [Compound 164] | – | 26.9 | 194 | – | 288 | – | – | –
29 | Cc1ccc(CN2CCCC2)cc1Nc1nccc(-c2cc(C#N)c3c(c2)[C@@](C)(CO)CN3)n1 [Compound 216] | – | 49 | 108 | – | 144 | – | – | –
30 | CC(=O)NCCCCc1ccc(C#N)cc1Nc1nccc(-c2cc(C#N)c3c(c2)[C@@](C)(CO)CN3)n1 [Compound 185] | – | 6.5 | 156 | – | 6.6 | – | – | –
